In US12629398B2, “Method of alleviating obsessive compulsive disorder symptoms by use of a multi-strain probiotic formulation” (Unique Biotech Limited, priority 2024, dated 2026):
“Also recorded” adds a separate entry of the source. Counter-ions that a name gives are not always drawn.

Key:
[1] = test system: CRP; experiment: Real-time PCR of cytokine mRNA in the amygdala: CRP; assay type: in vivo, rat; settings: quinpirole vs. vehicle, treatments vs. quinpirole group
Description: (§1) Experimental design was as given in Ref 12, incorporated herein in its entirety. The rats were randomly distributed into 5 different groups, with 6-8 rats per group (FIG. 1). Group 1, referred to as the “Vehicle” group, received the vehicle for a duration of 8 weeks. Group 2, denoted as the “Probiotic” group, received the peroral (PO) multistrain probiotic at a dose of 1× 10^10 CFU per rat for 8 weeks.
(§2) RT-PCR was performed to analyze the impact of a multistrain probiotic on cytokines mRNA expression (Ref 20, Rahman et al). Briefly, NucleoSpin® RNA isolation kit (#740955.50, DSS Takara Bio India Private Ltd) was used to extract RNA from the rat brain's amygdala. PrimeScript™ 1st strand cDNA synthesis kit (#6110A, DSS Takara Bio India Private Ltd) was used to process these RNA samples to cDNA. The 10 μL reaction mixture was prepared by mixing 5 μL of SYBR Green, 2 μL of the PCR primer (1 μL reverse+1 μL forward) (GCC Biotech, India, Private Ltd.). 1 μL of diluted cDNA template and 2 μL nuclease-free water. For each PCR test, the threshold cycle numbers were averaged across all samples. Using Δ/Δ Ct technique, the relative mRNA expression was calculated. The primers were designed (Table 6) using the software tools NCBI BLAST.

[2] = test system: nNOS; experiment: Western blot analysis of nNOS in the frontal cortex; assay type: in vivo, rat; settings: quinpirole vs. vehicle, treatments vs. quinpirole group
Text: as §1
Radioimmunoprecipitation Assay (RIPA) buffer was used to homogenize the frontal cortex part of the rat brain and then resolved using sodium dodecyl sulfate-polyacrylamide gel electrophoresis (SDS-PAGE). The proteins were then transferred to a nitrocellulose membrane, blocked with 5% bovine serum albumin, and incubated with the primary antibody anti-NOS1 (sc-5302, 1:1000 dilution) overnight at 4° C., followed by incubation with horseradish peroxidase-conjugate secondary antibody at RT. The required proteins were then detected by using an ECL solution.

[3] = test system: quinpirole-injected rats; experiment: Self-grooming test, quinpirole OCD model; assay type: in vivo, Wistar rats; settings: 10 min; quinpirole vs. vehicle; treatments vs. quinpirole group
Text: as §1

[4] = test system: colon; experiment: Colon histopathology (H&E and alcian blue-PAS staining); assay type: in vivo, rat; settings: quinpirole vs. control, treatments vs. quinpirole-recipient rats
Description: as §1
To examine the gut permeability, H&E and alcian-blue PAS staining were performed. The method is already described in our publications (Ref 20, 21, and 22), incorporated herein in its entirety. Briefly, sections were processed for deparaffinization with xylene, rehydration with alcohol, and then stained with H&E and alcian blue-PAS agents. Finally, slides were mounted with (DPX) followed by observations under a microscope (Leica-ICC50 W).

[5] = test system: TNF-α; experiment: Real-time PCR of cytokine mRNA in the amygdala: TNF-α; assay type: in vivo, rat; settings: quinpirole vs. vehicle, treatments vs. quinpirole group
Description: as §1, §2

[6] = test system: quinpirole-injected rats; experiment: Hole board test, quinpirole OCD model; assay type: in vivo, Wistar rats; settings: 5-minute session; quinpirole vs. vehicle; treatments in quinpirole rats
Text: as §1

[7] = test system: IL-6; experiment: Real-time PCR of cytokine mRNA in the amygdala: IL-6; assay type: in vivo, rat; settings: quinpirole vs. vehicle, treatments vs. quinpirole group
Description: as §1, §2

[8] = test system: quinpirole-injected rats; experiment: Elevated plus maze (EPM) test, anxiety-like behavior, quinpirole OCD model; assay type: in vivo, Wistar rats; settings: fluoxetine 10 mg/kg peroral 6 weeks with quinpirole
Text: as §1

[9] = test system: SCFAs; experiment: Short-chain fatty acids (SCFAs) in fecal samples by GC-FID; assay type: in vivo, rat; settings: treatments given in quinpirole rats, compared to OCD, unit from Table 7
Text: as §1
The gas chromatography-flame ionization detection (GC-FID) was used to evaluate the effect of OCD on bacterial metabolites as described earlier in our publications (Ref 22, Rahman et al & Ref 23, Satti et al). Briefly, supernatant acidified with HCL (5 M) and then extracted in diethyl ether to estimate the SCFAs. The acetate, propionate, and butyrate levels were estimated by loading the known amount of each SCFA.

[10] = test system: quinpirole-injected rats; experiment: Marble burying test, quinpirole OCD model; assay type: in vivo, Wistar rats; settings: 10 min; quinpirole vs. control; quinpirole effect among rats that received probiotic or fluoxetine
Text: as §1

Structure (SMILES)	mRNA expression of CRP [1]	expression of nNOS [2]	self-grooming activity (number of grooming episodes, score) [3]	number of mature goblet cells [4]	villus height/crypt depth ratio [4]	mRNA expression of TNF-α [5]	head dipping activity [6]	mRNA expression of IL-6 [7]	open-arms activity [8]	butyrate level [9] [µg/mL]	propionate level [9] [µg/mL]	number of marbles buried (increase by quinpirole) [10]
CCCN1CCC[C@@H]2Cc3n[nH]cc3C[C@H]21 [Quinpirole, (−)-Quinpirole hydrochloride]	significant increase											
CNCCC(Oc1ccc(C(F)(F)F)cc1)c1ccccc1 (stereo not shown) [Fluoxetine, fluoxetine]	prevents	significantly reduced; also recorded: decreased	did not notice any change	significantly increased	significantly increased	prevents	less response	prevents	improved	3.39 ± 0.32	2.99 ± 0.55	nonsignificant
